{"source": "patent US9125928B2", "about": "“Agent for suppressing the formation of abnormal skin cells caused by exposure to light” (OTSUKA PHARMACEUTICAL CO., LTD., priority 2010, dated 2015)", "key": {"[1]": {"tested_on": "caspase 3", "experiment": "Caspase 3 activity in human epidermal keratinocytes treated with AMP2Na, with or without UV-B irradiation", "format": "cell-based", "source_text": "The present Example examined a change in the caspase activity when human epidermal cells treated with disodium adenosine 5′-monophosphate (AMP2Na) were irradiated with ultraviolet light.\nHuman epidermal keratinocytes (purchased from Kurabo Industries Ltd.) were precultured using EpiLife-KG2 culture medium (produced by Kurabo Industries Ltd.) in 10 cm collagen-coated petri dishes (produced by Asahi Glass Co., Ltd.), and seeded at a density of 30,000 cells/well into a collagen-coated 96-well microplate. After cultivation in the EpiLife-KG2 culture medium for 8 hours, the culture medium was replaced with EpiLife culture medium (produced by Kurabo Industries Ltd.), followed by cultivation for an additional 16 hours. Subsequently, the culture medium was replaced with AMP2Na-containing culture medium adjusted to various concentrations. […] Subsequently, the activity of caspase 3 expressed in the cells were measured using a SensoLyte™ Rh110 Caspase 3 Assay Kit (produced by AnaSpec, Inc.). […] Further, in order to examine influences that AMP2Na affect the caspase activity of normal cells, caspase activity of the cells that were not irradiated with UV-B but treated with AMP2Na was determined. […]"}, "[2]": {"tested_on": "Hos:HR-1 mice", "experiment": "Preventive effect on skin cancer in ultraviolet light-irradiated hairless mice", "format": "in vivo", "conditions": "3% AMP2Na in 20% ethanol aqueous solution, 0.1 mL on the back twice a day, 5 days a week", "method": "In this Example, hairless mice were irradiated with ultraviolet light, and the preventive effect of AMP2Na against photocarcinogenesis in the mice was examined.\n5-week-old female Hos:HR-1 mice were purchased from Japan SLC, Inc., and from the age of 7 weeks, ultraviolet light (UV-B) irradiation was performed on their back. The ultraviolet irradiation (irradiation amount per time: 60 mJ/cm^2) was performed once a day, 5 days a week, for 12 weeks.\nThen, a 20% ethanol aqueous solution containing 3% of AMP2Na dissolved therein (test solution) and a 20% ethanol aqueous solution containing no AMP2Na (base) were prepared.\nAfter feeding the ultraviolet light-irradiated mice under normal conditions for 1 week, the mice were divided into 3 groups (6 mice in each group) under the conditions shown in Table 1, and fed for 12 weeks.\nThe development of tumors was determined, and the number of tumors was counted."}, "[3]": {"tested_on": "JB6 cells", "experiment": "Amount of cyclobutane pyrimidine dimers (CPD) in genomic DNA of UV-B irradiated JB6 cells, by ELISA", "format": "cell-based, mouse", "conditions": "15 mJ/cm^2 UV-B, 48 h", "method": "In this Example, normal mouse epidermal cells were irradiated with ultraviolet light, and then cultured in an AMP2Na-containing culture medium. Using the amount of cyclobutane pyrimidine dimers (CPD) as an index, the action of AMP2Na to reduce DNA mutation was examined.\nNormal mouse epidermal cell-derived JB6 cells (purchased from ATCC) were cultured in an FBS-containing MEM culture medium until subconfluent. Subsequently, 4×10^5 cultured cells were seeded into a 3.5 cm-dish with MEM (minimum essential medium) culture medium containing FBS (fetal bovine serum). Next day after the seeding, the culture medium was replaced with a serum-free MEM culture medium for serum starvation. Subsequently, the culture medium was replaced with PBS, followed by the irradiation with 15 mJ/cm^2 of UV-B. After ultraviolet irradiation, the culture medium was replaced with serum-free MEM culture medium containing 0.01 mM, 0.1 mM, or 1 mM AMP2Na or AMP2Na-free culture-medium (control). After the replacement of the culture medium, the cells were cultured with 5% CO2 at 37° C. for 48 hours, and then collected.\nGenomic DNA was extracted from the collected cells using a FastPure (trademark) DNA kit (Takara Bio Inc.). The extraction was carried out in accordance with the kit manual.\nThe amount of CPD in genomic DNA extracted from each cell was measured using ELISA. In particular, the extracted genomic DNA was heated at 100° C. for 10 minutes, and cooled on ice. Subsequently, genomic DNA was dispensed (50 μL/well) into a 96-well microplate coated with protamine sulfate, and dried. The following day, each of the wells was washed with PBS-T (PBS with Tween 20), and FBS-containing PBS was dispensed into each of the wells. The wells were then kept for 30 minutes at 37° C. […] Subsequently, the absorbance values at 492 nm were measured, and the amount of CPD in genomic DNA was calculated to determine the rate of change of CPD (variation in the relative amount of CPD; %) under each condition when the amount of CPD in the case of cultivation in the AMP2Na-free culture medium was assigned a value of 100%."}, "[4]": {"conditions": "6th week from start of application"}}, "data": [{"compound": "Nc1ncnc2c1ncn2[C@@H]1O[C@H](COP(=O)([O-])[O-])[C@@H](O)[C@H]1O.[Na+].[Na+]", "note": "[AMP2Na, disodium adenosine 5′-monophosphate]", "values": [{"measurement": "caspase activity", "setting": "[1]; human epidermal keratinocytes pretreated 2 h with AMP2Na, then 30 mJ/cm^2 UV-B, measured after 6 h cultivation", "result": "significant increase in the caspase activity"}, {"measurement": "caspase activity", "setting": "[1]; non-ultraviolet-irradiated human epidermal keratinocytes, 2 h treatment with AMP2Na-containing medium at various concentrations", "result": "almost no increase in the caspase activity"}, {"measurement": "average number of tumors developed per mouse", "setting": "[2]; [4]", "result": 0}, {"measurement": "tumor formation on the back of the mice", "setting": "[2]; [4]", "result": "not in the test solution-applied group"}, {"measurement": "tumor incidence", "setting": "[2]; [4]", "result": 0, "unit": "%"}, {"measurement": "tumor incidence", "setting": "[2]; 12th week from start of application", "result": 17, "unit": "%"}, {"measurement": "relative amount of CPD", "setting": "[3]; then 0.1 mM AMP2Na, versus control", "result": "decrease in the relative amount of CPD compared to the control group was significant"}, {"measurement": "relative amount of CPD", "setting": "[3]; then 1 mM AMP2Na, versus control", "result": "decrease in the relative amount of CPD compared to the control group was significant"}, {"measurement": "relative amount of CPD", "setting": "[3]; then AMP2Na added (0.01, 0.1 or 1 mM), AMP2Na-free control = 100%", "result": "decreased compared to the control group"}]}]}
